The target in the test is PD-1/PD-L1 interaction (PD-1-Ig / PD-L1-His) (Homo sapiens (Human), UniProt Q9NZQ7). Put plainly: PD-1/PD-L1 Homogenous Time-Resolved Fluorescence (HTRF) binding assay. Particulars: PD-1/PD-L1 HTRF binding assay; value given as range class; read-out: Range or IC50. In outline:
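Human PD-L1-His (10 nM final) was pre-incubated with inhibitor for 15 min, then PD-1-Ig (20 nM final) was added for a further 15 min in dPBS with 0.1% BSA and 0.05% Tween-20. Binding was detected by HTRF using Eu-cryptate anti-Ig (1 nM) and APC anti-His (20 nM).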
Background: TR-FRET usually uses a lanthanide donor and a delayed reading to cut background.

pIC50: −log10 of the molar value.

Chain of PD-1/PD-L1 interaction (PD-1-Ig / PD-L1-His) (Q9NZQ7 other isoform, or with tags, fused parts or gaps): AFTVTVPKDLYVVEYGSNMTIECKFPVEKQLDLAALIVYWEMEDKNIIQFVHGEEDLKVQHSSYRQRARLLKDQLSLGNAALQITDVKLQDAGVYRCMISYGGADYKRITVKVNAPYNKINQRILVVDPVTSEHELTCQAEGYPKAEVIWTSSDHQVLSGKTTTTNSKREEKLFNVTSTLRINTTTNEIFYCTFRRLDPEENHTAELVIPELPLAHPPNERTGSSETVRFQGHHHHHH

By pIC50 is commonly meant the negative decadic logarithm of the IC50, by convention in mol/L. Consider `COc1cc(OCc2cccc(-c3ccc4c(c3)OCCO4)c2C)cc(OCc2cccc(C#N)c2)c1CN[C@@H](CO)C(=O)O` [Example 1141, (S)-2-((2-((3-cyanobenzyl)oxy)-4-((3-(2,3-dihydrobenzo[b][1,4]dioxin-6-yl)-2-methylbenzyl)oxy)-6-methoxybenzyl)amino)-3-hydroxypropanoic acid], for which the pIC50 is 8.00 to 9.22.

With `COc1cc(OCc2cccc(-c3ccc4c(c3)OCCO4)c2C)cc(OCc2cccc(C#N)c2)c1CN[C@@](C)(CO)C(=O)O` [Example 1142, (S)-2-((2-((3-cyanobenzyl)oxy)-4-((3-(2,3-dihydrobenzo[b][1,4]dioxin-6-yl)-2-methylbenzyl)oxy)-6-methoxybenzyl)amino)-3-hydroxy-2-methylpropanoic acid], the pIC50 is 8.00 to 9.22.

Take `Cc1c(COc2ccc(CN[C@H](CO)C(=O)O)c(OCCCCC#N)c2)cccc1-c1ccccc1` [Example 1143, (R)-2-((2-(4-cyanobutoxy)-4-((2-methyl-[1,1′-biphenyl]-3-yl)methoxy)benzyl)amino)-3-hydroxypropanoic acid]: the pIC50 was 8.00 to 9.22.

For the compound `Cc1c(COc2ccc(CNC[C@@H](O)CC(=O)O)c(OCCCCC#N)c2)cccc1-c1ccccc1` [Example 1144, (S)-4-((2-(4-cyanobutoxy)-4-((2-methyl-[1,1′-biphenyl]-3-yl)methoxy)benzyl)amino)-3-hydroxybutanoic acid], the pIC50 is 8.00 to 9.22.

As for `N#Cc1cccc(COc2cc(OCc3cccc(-c4ccc5c(c4)OCCO5)c3Cl)ccc2CN2CCCC[C@H]2C(=O)O)c1` [Example 1145, (S)-1-(4-(2-chloro-3-(2,3-dihydrobenzo[b][1,4]dioxin-6-yl)benzyloxy)-2-(3-cyanobenzyloxyl)benzyl)piperidine-2-carboxylic acid], the pIC50 is 7.00 to 8.00.

Turning to `N#Cc1cccc(COc2cc(OCc3cccc(-c4ccc5c(c4)OCCO5)c3Cl)ccc2CN[C@H](CO)C(=O)O)c1` [Example 1146, (R)-2-(4-(2-chloro-3-(2,3-dihydrobenzo[b][1,4]dioxin-6-yl)benzyloxy)-2-(3-cyanobenzyloxy)benzylamino)-3-hydroxypropanoic acid], the pIC50 was 8.00 to 9.22.

`N#Cc1cccc(COc2cc(OCc3cccc(-c4ccc5c(c4)OCCO5)c3Cl)ccc2CNC[C@@H](O)CC(=O)O)c1` [Example 1147, (S)-4-(4-(2-chloro-3-(2,3-dihydrobenzo[b][1,4]dioxin-6-yl)benzyloxy)-2-(3-cyanobenzyloxy)benzylamino)-3-hydroxybutanoic acid]: the pIC50 is 8.00 to 9.22.

In the case of `C[C@](CO)(NCc1ccc(OCc2cccc(-c3ccc4c(c3)OCCO4)c2Cl)cc1OCc1cccc(C#N)c1)C(=O)O` [Example 1148, (R)-2-(4-(2-chloro-3-(2,3-dihydrobenzo[b][1,4]dioxin-6-yl)benzyloxy)-2-(3-cyanobenzyloxy)benzylamino)-3-hydroxy-2-methylpropanoic acid], the pIC50 is 8.00 to 9.22.

As to `C[C@@](CO)(NCc1ccc(OCc2cccc(-c3ccc4c(c3)OCCO4)c2Cl)cc1OCc1cccc(C#N)c1)C(=O)O` [Example 1149, (S)-2-(4-(2-chloro-3-(2,3-dihydrobenzo[b][1,4]dioxin-6-yl)benzyloxy)-2-(3-cyanobenzyloxy)benzylamino)-3-hydroxy-2-methylpropanoic acid], the pIC50 is 8.00 to 9.22.

With `CC(=O)NCCNCc1ccc(OCc2cccc(-c3ccc4c(c3)OCCO4)c2Cl)cc1OCc1cccc(C#N)c1` [Example 1150, N-(2-(4-(2-chloro-3-(2,3-dihydrobenzo[b][1,4]dioxin-6-yl)benzyloxy)-2-(3-cyanobenzyloxy)benzylamino)ethyl)acetamide], the pIC50 was 7.00 to 8.00.

For `Cc1cc(CNCCO)c(OCc2cncc(C#N)c2)cc1OCc1cccc(-c2ccc3c(c2)OCCO3)c1Cl` [Example 1151, 5-((5-(2-chloro-3-(2,3-dihydrobenzo[b][1,4]dioxin-6-yl)benzyloxy)-2-((2-hydroxyethylamino)methyl)-4-methylphenoxy)methyl)nicotinonitrile], the pIC50 was 8.00 to 9.22.

As to `Cc1cc(CN2CCCC[C@H]2C(=O)O)c(OCc2cncc(C#N)c2)cc1OCc1cccc(-c2ccc3c(c2)OCCO3)c1Cl` [Example 1152, (S)-1-(4-(2-chloro-3-(2,3-dihydrobenzo[b][1,4]dioxin-6-yl)benzyloxy)-2-((5-cyanopyridin-3-yl)methoxy)-5-methylbenzyl)piperidine-2-carboxylic acid], the pIC50 was 8.00 to 9.22.

`Cc1cc(CN[C@H](CO)C(=O)O)c(OCc2cncc(C#N)c2)cc1OCc1cccc(-c2ccc3c(c2)OCCO3)c1Cl` [Example 1153, (R)-2-(4-(2-chloro-3-(2,3-dihydrobenzo[b][1,4]dioxin-6-yl)benzyloxy)-2-((5-cyanopyridin-3-yl)methoxy)-5-methylbenzylamino)-3-hydroxypropanoic acid]: the pIC50 was 8.00 to 9.22.

Consider `Cc1cc(CN[C@@](C)(CO)C(=O)O)c(OCc2cncc(C#N)c2)cc1OCc1cccc(-c2ccc3c(c2)OCCO3)c1Cl` [Example 1154, (S)-2-(4-(2-chloro-3-(2,3-dihydrobenzo[b][1,4]dioxin-6-yl)benzyloxy)-2-((5-cyanopyridin-3-yl)methoxy)-5-methylbenzylamino)-3-hydroxy-2-methylpropanoic acid], for which the pIC50 was 8.00 to 9.22.

With `Cc1cc(CN2CCCC[C@@H]2C(=O)O)c(OCc2cncc(C#N)c2)cc1OCc1cccc(-c2ccc3c(c2)OCCO3)c1Cl` [Example 1155, (R)-1-(4-(2-chloro-3-(2,3-dihydrobenzo[b][1,4]dioxin-6-yl)benzyloxy)-2-((5-cyanopyridin-3-yl)methoxy)-5-methylbenzyl)piperidine-2-carboxylic acid], the pIC50 was 8.00 to 9.22.

For `Cc1cc(CN[C@](C)(CO)C(=O)O)c(OCc2cncc(C#N)c2)cc1OCc1cccc(-c2ccc3c(c2)OCCO3)c1Cl` [Example 1156, (R)-2-(4-(2-chloro-3-(2,3-dihydrobenzo[b][1,4]dioxin-6-yl)benzyloxy)-2-((5-cyanopyridin-3-yl)methoxy)-5-methylbenzylamino)-3-hydroxy-2-methylpropanoic acid], the pIC50 is 8.00 to 9.22.

As to `Cc1c(COc2cc(OCc3cccc(C#N)c3)c(CN[C@H](CO)C(=O)O)cc2Cl)cccc1-c1ccc2c(c1)OCCO2` [Example 1157, (R)-2-((5-chloro-2-((3-cyanobenzyl)oxy)-4-((3-(2,3-dihydrobenzo[b][1,4]dioxin-6-yl)-2-methylbenzyl)oxy)benzyl)amino)-3-hydroxypropanoic acid], the pIC50 was 8.00 to 9.22.

On to `Cc1c(COc2cc(OCc3cccc(C#N)c3)c(CN[C@@H](CC(=O)O)C(=O)O)cc2Cl)cccc1-c1ccc2c(c1)OCCO2` [Example 1158, (S)-2-((5-chloro-2-((3-cyanobenzyl)oxy)-4-((3-(2,3-dihydrobenzo[b][1,4]dioxin-6-yl)-2-methylbenzyl)oxy)benzyl)amino)succinic acid], for which the pIC50 was 8.00 to 9.22.

Regarding `Cc1c(COc2cc(OCc3cccc(C#N)c3)c(CNC(Cc3cccc(O)c3)C(=O)O)cc2Cl)cccc1-c1ccc2c(c1)OCCO2` (stereo not shown) [Example 1159, 2-((5-chloro-2-((3-cyanobenzyl)oxy)-4-((3-(2,3-dihydrobenzo[b][1,4]dioxin-6-yl)-2-methylbenzyl)oxy)benzyl)amino)-3-(3-hydroxyphenyl)propanoic acid], the pIC50 is 7.00 to 8.00.

Turning to `CSC[C@H](NCc1cc(Cl)c(OCc2cccc(-c3ccc4c(c3)OCCO4)c2C)cc1OCc1cccc(C#N)c1)C(=O)O` [Example 1160, (R)-2-((5-chloro-2-((3-cyanobenzyl)oxy)-4-((3-(2,3-dihydrobenzo[b][1,4]dioxin-6-yl)-2-methylbenzyl)oxy)benzyl)amino)-3-(methylthio)propanoic acid], the pIC50 is 7.00 to 8.00.

Turning to `Cc1c(COc2cc(OCc3cccc(C#N)c3)c(CN[C@@H](C(=O)O)c3ccc(O)cc3)cc2Cl)cccc1-c1ccc2c(c1)OCCO2` [Example 1161, (R)-2-((5-chloro-2-((3-cyanobenzyl)oxy)-4-((3-(2,3-dihydrobenzo[b][1,4]dioxin-6-yl)-2-methylbenzyl)oxy)benzyl)amino)-2-(4-hydroxyphenyl)acetic acid], the pIC50 is 7.00 to 8.00.

For the compound `Cc1c(COc2cc(OCc3cccc(C#N)c3)c(CNC(C(=O)O)C(F)(F)F)cc2Cl)cccc1-c1ccc2c(c1)OCCO2` (stereo not shown) [Example 1162, 2-((5-chloro-2-((3-cyanobenzyl)oxy)-4-((3-(2,3-dihydrobenzo[b][1,4]dioxin-6-yl)-2-methylbenzyl)oxy)benzyl)amino)-3,3,3-trifluoropropanoic acid], the negative-log IC50 (pIC50) was 4.70 to 7.00.

With `Cc1c(COc2cc(OCc3cccc(C#N)c3)c(CN[C@@H](C(=O)O)[C@@H](C)O)cc2Cl)cccc1-c1ccc2c(c1)OCCO2` [Example 1163, (2R,3R)-2-((5-chloro-2-((3-cyanobenzyl)oxy)-4-((3-(2,3-dihydrobenzo[b][1,4]dioxin-6-yl)-2-methylbenzyl)oxy)benzyl)amino)-3-hydroxybutanoic acid], the pIC50 is 8.00 to 9.22.

Regarding `Cc1c(COc2cc(OCc3cccc(C#N)c3)c(CNC(Cc3c[nH]cn3)C(=O)O)cc2Cl)cccc1-c1ccc2c(c1)OCCO2` (stereo not shown) [Example 1164, 2-((5-chloro-2-((3-cyanobenzyl)oxy)-4-((3-(2,3-dihydrobenzo[b][1,4]dioxin-6-yl)-2-methylbenzyl)oxy)benzyl)amino)-3-(1H-imidazol-4-yl)propanoic acid], the pIC50 is 8.00 to 9.22.

For `Cc1c(COc2cc(OCc3cccc(C#N)c3)c(CN3CCCC3C(=O)O)cc2Cl)cccc1-c1ccc2c(c1)OCCO2` (stereo not shown) [Example 1165, 1-(5-chloro-2-((3-cyanobenzyl)oxy)-4-((3-(2,3-dihydrobenzo[b][1,4]dioxin-6-yl)-2-methylbenzyl)oxy)benzyl)pyrrolidine-2-carboxylic acid], the pIC50 is 8.00 to 9.22.
